Experimental data taken from patent publication US4035381A, “Antibacterial agents” (priority 1976, dated 1977).
Where “and” joins values, the source holds several entries; their conditions need not be identical. Equal entries are not always repeated. Structures can show the parent of a compound that is named as a salt. Where two headings read alike, the source gives them in different places.

Experiments:
Str. pneumoniae A9585 = assay: Antibiotic activity in nutrient broth (MIC), Str. pneumoniae; assay type: cell-based; settings: Streptococcus pneumoniae, 45% AAB + 5% serum + 50% broth, 10^-3 dilution of overnight culture, Ex. 1/Ex. 2 figures recalculated on penicillin content
Source text: (§1) ANTIBIOTIC ACTIVITY IN NUTRIENT BROTH
(§2) *45% AAB + 5% serum + 50% broth
(§3) **Dilution of overnight broth culture
(§4) +These figures were […] on the basis that there was only 60.61%
(§5) amoxicillin in the sample; in other words, the numerical values were
(§6) lowered, i.e. improved.
(§7) ----//These figures were recalculated on the basis that there was only

Str. pyogenes A9604 = assay: Antibiotic activity in nutrient broth (MIC), Str. pyogenes; assay type: cell-based; settings: Streptococcus pyogenes, 45% AAB + 5% serum + 50% broth, 10^-3 dilution of overnight culture, Ex. 1/Ex. 2 figures recalculated on penicillin content
Source text: as §1, §2, §3, §4, §5, §6, §7

S. aureus Smith A9537 = assay: Antibiotic activity in nutrient broth (MIC), S. aureus Smith; assay type: cell-based; settings: Staphylococcus aureus, 10^-4 dilution, Ex. 1/Ex. 2 figures recalculated on penicillin content
Source text: as §1, §3, §4, §5, §6, §7

S. aureus bx 1633 A9606 = assay: Antibiotic activity in nutrient broth (MIC), S. aureus bx 1633; assay type: cell-based; settings: Ex. 1/Ex. 2 figures recalculated on penicillin content
[1] = tested on: S. aureus Meth.-res. A15097; assay: Antibiotic activity in nutrient broth (MIC), S. aureus Meth.-res.; assay type: cell-based; settings: Staphylococcus aureus
Sal. enteritidis A9531 = assay: Antibiotic activity in nutrient broth (MIC), Sal. enteritidis; assay type: cell-based; settings: Salmonella enterica, 10^-4 dilution, Ex. 1/Ex. 2 figures recalculated on penicillin content
Source text: as §1, §3, §4, §5, §6, §7

E. coli Juhl A15119 = assay: Antibiotic activity in nutrient broth (MIC), E. coli Juhl; assay type: cell-based; settings: Escherichia coli, JUHLA15119, 10^-4 dilution, Ex. 1/Ex. 2 figures recalculated on penicillin content
Source text: as §1, §3, §4, §5, §6, §7

E. coli A9675 = assay: Antibiotic activity in nutrient broth (MIC), E. coli A9675; assay type: cell-based; settings: Escherichia coli, 10^-4 dilution, Ex. 1/Ex. 2 figures recalculated on penicillin content
Source text: as §1, §3, §4, §5, §6, §7

K. pneumoniae A9977 = assay: Antibiotic activity in nutrient broth (MIC), K. pneumoniae A9977; assay type: cell-based; settings: Klebsiella pneumoniae, 10^-4 dilution, Ex. 1/Ex. 2 figures recalculated on penicillin content
Source text: as §1, §3, §4, §5, §6, §7

K. pneumoniae A15130 = assay: Antibiotic activity in nutrient broth (MIC), K. pneumoniae A15130; assay type: cell-based; settings: Klebsiella pneumoniae
Pr. mirabilis A9900 = assay: Antibiotic activity in nutrient broth (MIC), Pr. mirabilis; assay type: cell-based; settings: Proteus mirabilis, 10^-4 dilution, Ex. 1/Ex. 2 figures recalculated on penicillin content
Source text: as §1, §3, §4, §5, §6, §7

Pr. morganii A15153 = assay: Antibiotic activity in nutrient broth (MIC), Pr. morganii; assay type: cell-based; settings: Morganella morganii, 10^-4 dilution, Ex. 1/Ex. 2 figures recalculated on penicillin content
Ps. aeruginosa A9843A = assay: Antibiotic activity in nutrient broth (MIC), Ps. aeruginosa; assay type: cell-based; settings: Pseudomonas aeruginosa
Ser. marcescens A20019 = assay: Antibiotic activity in nutrient broth (MIC), Ser. marcescens; assay type: cell-based; settings: Serratia marcescens, 10^-4 dilution, Ex. 1/Ex. 2 figures recalculated on penicillin content
Source text: as §1, §3, §4, §5, §6, §7

Ent. cloacae A9656 = assay: Antibiotic activity in nutrient broth (MIC), Ent. cloacae A9656; assay type: cell-based; settings: Enterobacter cloacae, 10^-4 dilution, Ex. 1/Ex. 2 figures recalculated on penicillin content
Ent. cloacae A9657 = assay: Antibiotic activity in nutrient broth (MIC), Ent. cloacae A9657; assay type: cell-based; settings: Enterobacter cloacae, 10^-4 dilution, Ex. 1/Ex. 2 figures recalculated on penicillin content
Ent. cloacae A9659 = assay: Antibiotic activity in nutrient broth (MIC), Ent. cloacae A9659; assay type: cell-based; settings: Enterobacter cloacae, 10^-4 dilution, Ex. 1/Ex. 2 figures recalculated on penicillin content
[2] = Stability of reconstituted aqueous solution; assay type: physicochemical; settings: 10 to 20 mg./ml. of activity
[3] = Hydrolysis to parent penicillin (paper strip and liquid chromatography); assay type: in vitro ADME; settings: 0.2 mg./ml.; pH 6.5-7.0 buffer or serum; room temperature and 37° C.
Bioassay = settings: theory 730 (Ex. 1) / 596 (Ex. 2) mcg./mg.
[4] = Oral and intramuscular rat blood levels; assay type: in vivo
[5] = In vitro antibacterial spectrum / activity; assay type: cell-based; settings: vs amoxicillin (Ex. 1) or ampicillin (Ex. 2)
Hygroscopicity = assay type: physicochemical; settings: solid product
[6] = Mouse blood levels after oral administration; settings: 100 mg./kg., tested twice, average of 6 mice each
[7] = Mouse blood levels after intramuscular administration; settings: 10 mg./kg., average of six animals, unit assumed
[8] = cited from earlier work
[9] = prior-art salt; cited from earlier work
[10] = in vivo, iv; cited from earlier work

CC1(C)S[C@@H]2[C@H](N3C(=O)[C@@H](c4ccc(O)cc4)NC3c3ccc(S(=O)(=O)O)o3)C(=O)N2[C@H]1C(=O)O (mixture of isomers) [Example 1, Disodium 6-[D(-)2-(±)5-Sulfo-2-furyl-5-oxo-4-p-hydroxyphenyl-1-imidazolidinyl]penicillanate]
MIC (Str. pneumoniae A9585): 0.0005 µg/mL | MIC (Str. pyogenes A9604): 0.0005 µg/mL | MIC (S. aureus Smith A9537; SMITHA9537, +50% serum): 0.13 µg/mL | MIC (S. aureus Smith A9537; SMITHA9537, nutrient broth, no serum): 0.06 µg/mL | MIC (S. aureus bx 1633 A9606; 10^-2 dilution): > 125 µg/mL | MIC (S. aureus bx 1633 A9606; Staphylococcus aureus, BX1633A9606, 10^-3 dilution, read-out: MIC): > 125 µg/mL | MIC [1]: > 125 µg/mL | MIC (Sal. enteritidis A9531): 0.13 µg/mL | MIC (E. coli Juhl A15119): 1 µg/mL | MIC (E. coli A9675): 16 µg/mL | MIC (K. pneumoniae A9977): 0.13 µg/mL | MIC (K. pneumoniae A15130): 125 µg/mL | MIC (Pr. mirabilis A9900): 0.25 µg/mL | MIC (Pr. morganii A15153): > 125 µg/mL | MIC (Ps. aeruginosa A9843A): > 125 µg/mL | MIC (Ser. marcescens A20019): 32 µg/mL | MIC (Ent. cloacae A9656): > 125 µg/mL | MIC (Ent. cloacae A9657): 63 µg/mL | MIC (Ent. cloacae A9659): 63 µg/mL | stable at room temperature (diluted solution) [2]: at least 24 hours | hydrolysis in water to parent penicillin [3]: rapidly hydrolyzes in water to amoxicillin | Bioassay (Bioassay): 696 µg/mg | Intramuscular rat blood levels compared with parent penicillin ([4]; intramuscular): substantially equal to those of amoxicillin | Oral rat blood levels compared with parent penicillin ([4]; oral): substantially equal to those of amoxicillin | in vitro antibacterial spectrum compared with parent penicillin [5]: substantially equivalent to that of amoxicillin | hygroscopicity (Hygroscopicity): nonhygroscopic | Blood level ([6]; 0.5 hours, listed as Ex. 1, in µg/mL (unit assumed)): 6.3 and 9.5 | Blood level ([6]; 1 hour, listed as Ex. 1, in µg/mL (unit assumed)): 7.2 and 10.4 | Blood level ([6]; 2 hours, listed as Ex. 1, in µg/mL (unit assumed)): 3.9 and 4.9 | Blood level ([6]; 3.5 hours, in µg/mL (unit assumed)): 1.1 | Mouse blood level ([7]; 0.25 hours): 7.3 µg/mL | Mouse blood level ([7]; 0.5 hours): 5.4 µg/mL | Mouse blood level ([7]; 1 hour): 2.1 µg/mL | Mouse blood level ([7]; 1.5 hours): 1.1 µg/mL

CC1(C)S[C@@H]2[C@H](NC(=O)[C@H](N)c3ccccc3)C(=O)N2[C@H]1C(=O)O [sodium salt of ampicillin]
shelf-life of aqueous solution ([8]; room temperature, reconstituted at 250 mg./ml.): about one | hygroscopicity [9]: hygroscopic | irritation on injection [10]: somewhat irritating on injection

CC1(C)S[C@@H]2[C@H](N3C(=O)[C@@H](c4ccccc4)NC3(C)C)C(=O)N2[C@H]1C(=O)O [hetacillin]
stability in aqueous solution compared with parent penicillins ([8]; as sodium salts): somewhat more stable
